ChEMBL document CHEMBL3044930, “Mannich base derivatives of 1,3,4-oxadiazole: synthesis and screening against Entamoeba histolytica” (Med Chem Res, 2013)

Experiments:
Entamoeba histolytica = test: Antiamoebic activity against Entamoeba histolytica HM-1:IMSS after 72 hr by eosin stain-based spectrophotometric analysis; format: functional, organism-based
MCF7 = test: Cytotoxicity against Homo sapiens (human) MCF7 cells after 48 hr by MTT assay; format: cell-based; conditions: MCF7, 48 h

Row | Compound | IC50 (Entamoeba histolytica) | IC50 (MCF7)
1 | CCN1CCN(Cn2nc(-c3ccncc3)oc2=S)CC1 | 327 nM | > 250000 nM
2 | S=c1oc(-c2ccncc2)nn1CN1CCN(c2cccc(Cl)c2)CC1 | 2570 nM | 
3 | S=c1oc(-c2ccncc2)nn1CN1CCN(Cc2ccccc2)CC1 | 3400 nM | 
4 | COc1ccccc1N1CCN(Cn2nc(-c3ccncc3)oc2=S)CC1 | 1060 nM | > 250000 nM
5 | Fc1ccc(N2CCN(Cn3nc(-c4ccncc4)oc3=S)CC2)cc1 | 245 nM | > 250000 nM
6 | FC(F)(F)c1ccccc1N1CCN(Cn2nc(-c3ccncc3)oc2=S)CC1 | 2870 nM | 
7 | S=c1oc(-c2ccncc2)nn1CN1CCN(c2ccccn2)CC1 | 2820 nM | 
8 | S=c1oc(-c2ccncc2)nn1CN1CCN(Cc2ccc3c(c2)OCO3)CC1 | 3620 nM | 
9 | CN1CCN(Cn2nc(-c3ccncc3)oc2=S)CC1 | 5110 nM | 
10 | S=c1oc(-c2ccncc2)nn1CN1CCN(c2ccccc2)CC1 | 3470 nM | 
